Measurements from patent publication US7943598B2, “Use of organic glucosamine salts” (Bioiberica, S.A., priority 2004, dated 2011).

Tested on: aggrecan degradation induced with IL-1α
Assay: Inhibition of aggrecan degradation (aggrecanolysis) induced with IL-1α in LTC chondrocyte culture, Western Blot with anti-G1 antibody
Format: cell-based, rat
Conditions: for inhibition of aggrecanolysis induced by IL-1α vs. the control: LTC rat chondrosarcoma chondrocyte culture, 10 ng/mL IL-1α, 4 days, control = culture with only IL-1α
Procedure: The study of the inhibition of aggrecan degradation was performed on a chondrocyte culture from a rat chondrosarcoma cell line. This cell line, called LTC, deposits an extracellular matrix similar to the cartilage's, expresses all the components of the aggrecanase system, generates the fragmentation of aggrecan by said enzymes, and responds to known aggrecanolysis inhibitors such as glucosamine hydrochloride. The assays were performed on chondrocyte cultures from a rat chondrosarcoma cell line called LTC. The LTC cells were kept in a monolayer culture in a Gibco DMEM medium (Dulbecco's Modification of Eagle's Medium) (containing 4.5 g/L of glucose) supplemented with sodium bicarbonate (3.7 g/L), glutamine (2 mM), ascorbic acid (50 mg/L), gentamicin (50 mg/L), and bovine fetal serum Hyalone (10%), at pH 7.4. The confluent LTC cell cultures were trypsinised and 40,000 cells per 0.5 mL of culture were seeded in 48-well plates. They were maintained for 5 days, during which time they deposited 15-30 μg of glycosaminoglycans (GAG) in each well. The medium was separated, the cell membranes were washed by adding 5×1 mL of a catabolic medium {DMEM+4.5 g/L glucose supplemented with sodium bicarbonate (3.7 g/L), glutamine (2 mM), and 10 ng/mL of IL-1α (interleukin-1α) at pH 7.4}. Subsequently, the cultures were kept in 200 μL of this medium, supplemented or not with glucosamine hydrogen malate, for 4 days, without changing the medium, at 37° C. In order to verify the effect of glucosamine hydrogen malate on aggrecan degradation, a Western Blot was performed. For the Western Blot, 20 μL of 50 mM tris-acetate at pH 7.3 were added to each well. The cultures (medium+cell membrane) were deglycosylated with 50 mU of chondroitinase ABC at 37° C. for 4 hours. Subsequently, the samples in each well were recovered and centrifuged at 1,460 g for 10 minutes. 25 μL-fractions of the supernatant were separated by electrophoresis (gel gradient 8-12% SDS PAGE) and analysed by means of a Western Blot using anti-G1 antibody. The antiserum was used at a 1:5,000 dilution and the peroxidase-conjugated goat anti-(rabbit IgG) was detected by means of the Amersham ECL Kit. The exposure time ranged between 5 seconds and 5 minutes in order to obtain quantifiable images. The Western Blots were scanned and the bands were quantified by means of the SCION image analysis software. In relation to the described procedure, see: J. D. Sandy et al., Biochem. J. 335, 59-66 (1998).

Cl.N[C@H]1C(O)O[C@H](CO)[C@@H](O)[C@@H]1O (some centres unmarked) [glucosamine hydrochloride, reference compound]
inhibition of aggrecanolysis induced by IL-1α vs. the control (1 mM): 83±4.9%
inhibition of aggrecanolysis induced by IL-1α vs. the control (10 mM): 53±5.8%

N[C@H]1C(O)O[C@H](CO)[C@@H](O)[C@@H]1O.O=C(O)CC(O)C(=O)O (some centres unmarked) [glucosamine hydrogen malate, Glucosamine Hydrogen Malate]
inhibition of aggrecanolysis induced by IL-1α vs. the control (1 mM): 95±17.5%
effectiveness in inhibiting aggrecanolysis compared with glucosamine hydrochloride (FIG. 1) (10 mM, LTC culture with IL-1α): significantly more effective than glucosamine hydrochloride
inhibition of aggrecanolysis induced by IL-1α vs. the control (10 mM): 32±3.7%
